Results reported in US20090048288A1, “METHOD OF TREATING STRESS-MEDIATED DEPRESSION” (H. Lundbeck A/S, priority 2007, published 2009).
Entries after “also recorded” stand apart in the source; their conditions may differ.

Tested on: Chronic mild stress model in rats
Experiment: Chronic mild stress model in rats, serum marker analysis
Conditions: for Apo A1 (Apolipoprotein A1), median value: serum 24 hrs after last drug injection; for reversal of chronic mild stress induced changes in serum inflammatory markers / cytokine levels: rats exposed to chronic mild stress, compared with non-stressed controls
From the text: The biochemical changes induced in the animals studied in the stress models lead to increases in inflammatory mediators/markers.
At the end of the present study, terminal serum samples were collected for marker analysis to evaluate the effects of stress with and without drug on the levels of about 60 blood markers.
Serum samples were withdrawn from the tail, without stunning, during the daytime (09:00-17:00) 24 hrs after the last drug injection. Blood was collected into BD vacutainers containing clot activator and gel for serum preparation, inverted 5 times and maintained on ice until centrifugation at 3000 rpm for 10 min at 4° C. Serum was decanted, placed on ice, and at the end of the day stored at −80° C.

CN(C)CCC[C@@]1(c2ccc(F)cc2)OCc2cc(C#N)ccc21 [ESC, escitalopram, reference compound]
CRP (C Reactive Protein), median value (1st study, 5 mg/kg, serum): 1060.00 µg/mL
Eotaxin, median value (1st study, 5 mg/kg, serum): 1300.00 pg/mL
FGF-9 (Fibroblast Growth Factor-9), median value (1st study, 5 mg/kg, serum): 0.90 ng/mL
GCP-2 (Granulocyte Chemotactic Protein-2), median value (1st study, 5 mg/kg, serum): 0.21 ng/mL
Growth Hormone, median value (1st study, 5 mg/kg, serum): 1.38 ng/mL
IL-1alpha (Interleukin-1alpha), median value (1st study, 5 mg/kg, serum): 15.40 pg/mL
IL-2 (Interleukin-2), median value (1st study, 5 mg/kg, serum): 38.80 pg/mL
IL-4 (Interleukin-4), median value (1st study, 5 mg/kg, serum): 51.70 pg/mL
IL-7 (Interleukin-7), median value (1st study, 5 mg/kg, serum): 0.22 ng/mL
IL-10 (Interleukin-10), median value (1st study, 5 mg/kg, serum): 317.00 pg/mL
IL-11 (Interleukin-11), median value (1st study, 5 mg/kg, serum): 166.00 pg/mL
IP-10 (Inducible Protein-10), median value (1st study, 5 mg/kg, serum): 194.00 pg/mL
IgA (Immunoglobulin A), median value (1st study, 5 mg/kg, serum): 6.54 µg/mL
Insulin, median value (1st study, 5 mg/kg, serum): 11.30 uIU/mL
LIF (Leukemia Inhibitory Factor), median value (1st study, 5 mg/kg, serum): 67.20 pg/mL
Leptin, median value (1st study, 5 mg/kg, serum): 2.62 ng/mL
Lymphotactin, median value (1st study, 5 mg/kg, serum): 68.00 pg/mL
M-CSF (Macrophage-Colony Stimulating Factor), median value (1st study, 5 mg/kg, serum): 941.00 ng/mL
MCP-1 (Monocyte Chemoattractant Protein-1), median value (1st study, 5 mg/kg, serum): 1500.00 pg/mL
MCP-3 (Monocyte Chemoattractant Protein-3), median value (1st study, 5 mg/kg, serum): 885.00 pg/mL
MCP-5 (Monocyte Chemoattractant Protein-5), median value (1st study, 5 mg/kg, serum): 0.87 pg/mL
MIP-1alpha (Macrophage Inflammatory Protein-1alpha), median value (1st study, 5 mg/kg, serum): 244.00 ng/mL
MIP-1gamma (Macrophage Inflammatory Protein-1gamma), median value (1st study, 5 mg/kg, serum): 11.50 ng/mL
MIP-2 (Macrophage Inflammatory Protein-2), median value (1st study, 5 mg/kg, serum): 0.09 pg/mL
MPO (Myeloperoxidase), median value (1st study, 5 mg/kg, serum): 54.60 ng/mL
NGAL (Lipocalin-2), median value (1st study, 5 mg/kg, serum): 0.22 ng/mL
Osteopontin, median value (1st study, 5 mg/kg, serum): 310.00 ng/mL
SAP (Serum Amyloid P), median value (1st study, 5 mg/kg, serum): 178.00 µg/mL
SCF (Stem Cell Factor), median value (1st study, 5 mg/kg, serum): 16.95 pg/mL
SGOT (Serum Glutamic-Oxaloacetic Transaminase), median value (1st study, 5 mg/kg, serum): 0.31 µg/mL
TIMP-1 (Tissue Inhibitor of Metalloproteinase Type-1), median value (1st study, 5 mg/kg, serum): 0.22 ng/mL
TPO (Thrombopoietin), median value (1st study, 5 mg/kg, serum): 142.00 ng/mL
Tissue Factor, median value (1st study, 5 mg/kg, serum): 0.15 ng/mL
VCAM-1 (Vascular Cell Adhesion Molecule-1), median value (1st study, 5 mg/kg, serum): 409.00 ng/mL
VEGF (Vascular Endothelial Cell Growth Factor), median value (1st study, 5 mg/kg, serum): 106.00 pg/mL
Apo A1 (Apolipoprotein A1), median value (1st study, 5 mg/kg): 8.40 µg/mL
reversal of chronic mild stress induced changes in serum inflammatory markers / cytokine levels: inactive at most of these changes

Oc1noc2c1CCNC2 [GBX, 4,5,6,7-tetrahydroisoxazolo[5,4-c]pyridine-3-ol]
CRP (C Reactive Protein), median value (1st study, 5 mg/kg, serum): 1140.00 µg/mL
Cystatin-C, median value (1st study, 5 mg/kg, serum): 1165.00 ng/mL
FGF-9 (Fibroblast Growth Factor-9), median value (1st study, 5 mg/kg, serum): 0.59 ng/mL
GCP-2 (Granulocyte Chemotactic Protein-2), median value (1st study, 5 mg/kg, serum): 0.19 ng/mL
Growth Hormone, median value (1st study, 5 mg/kg, serum): 7.67 ng/mL
IL-1alpha (Interleukin-1alpha), median value (1st study, 5 mg/kg, serum): 11.30 pg/mL
IL-2 (Interleukin-2), median value (1st study, 5 mg/kg, serum): 31.30 pg/mL
IL-4 (Interleukin-4), median value (1st study, 5 mg/kg, serum): 29.60 pg/mL
IL-7 (Interleukin-7), median value (1st study, 5 mg/kg, serum): 0.16 ng/mL
IL-10 (Interleukin-10), median value (1st study, 5 mg/kg, serum): 249.00 pg/mL
IL-11 (Interleukin-11), median value (1st study, 5 mg/kg, serum): 128.00 pg/mL
IL-18 (Interleukin-18), median value (1st study, 5 mg/kg, serum): 0.07 ng/mL
IP-10 (Inducible Protein-10), median value (1st study, 5 mg/kg, serum): 138.00 pg/mL
IgA (Immunoglobulin A), median value (1st study, 5 mg/kg, serum): 5.91 µg/mL
Insulin, median value (1st study, 5 mg/kg, serum): 8.88 uIU/mL
LIF (Leukemia Inhibitory Factor), median value (1st study, 5 mg/kg, serum): 53.90 pg/mL
Leptin, median value (1st study, 5 mg/kg, serum): 2.59 ng/mL
Lymphotactin, median value (1st study, 5 mg/kg, serum): 53.80 pg/mL
M-CSF (Macrophage-Colony Stimulating Factor), median value (1st study, 5 mg/kg, serum): 865.00 ng/mL
MCP-1 (Monocyte Chemoattractant Protein-1), median value (1st study, 5 mg/kg, serum): 1185.00 pg/mL
MCP-3 (Monocyte Chemoattractant Protein-3), median value (1st study, 5 mg/kg, serum): 655.00 pg/mL
MCP-5 (Monocyte Chemoattractant Protein-5), median value (1st study, 5 mg/kg, serum): 0.77 pg/mL
MIP-1alpha (Macrophage Inflammatory Protein-1alpha), median value (1st study, 5 mg/kg, serum): 173.00 ng/mL
MIP-1gamma (Macrophage Inflammatory Protein-1gamma), median value (1st study, 5 mg/kg, serum): 7.95 ng/mL
MIP-2 (Macrophage Inflammatory Protein-2), median value (1st study, 5 mg/kg, serum): 0.08 pg/mL
MPO (Myeloperoxidase), median value (1st study, 5 mg/kg, serum): 20.80 ng/mL
NGAL (Lipocalin-2), median value (1st study, 5 mg/kg, serum): 0.17 ng/mL
Osteopontin, median value (1st study, 5 mg/kg, serum): 396.00 ng/mL
SAP (Serum Amyloid P), median value (1st study, 5 mg/kg, serum): 133.00 µg/mL
SCF (Stem Cell Factor), median value (1st study, 5 mg/kg, serum): 14.85 pg/mL
SGOT (Serum Glutamic-Oxaloacetic Transaminase), median value (1st study, 5 mg/kg, serum): 0.21 µg/mL
TIMP-1 (Tissue Inhibitor of Metalloproteinase Type-1), median value (1st study, 5 mg/kg, serum): 0.16 ng/mL
TPO (Thrombopoietin), median value (1st study, 5 mg/kg, serum): 147.00 ng/mL
Tissue Factor, median value (1st study, 5 mg/kg, serum): 0.10 ng/mL
VCAM-1 (Vascular Cell Adhesion Molecule-1), median value (1st study, 5 mg/kg, serum): 361.00 ng/mL
VEGF (Vascular Endothelial Cell Growth Factor), median value (1st study, 5 mg/kg, serum): 81.00 pg/mL
Apo A1 (Apolipoprotein A1), median value (1st study, 5 mg/kg): 8.20 µg/mL
Beta-2 Microglobulin, median value (2nd study, 10 mg/kg, serum): 38.00 µg/mL
CRP (C Reactive Protein), median value (2nd study, 10 mg/kg, serum): 1030.00 µg/mL
Clusterin, median value (2nd study, 10 mg/kg, serum): 108.00 µg/mL
Cystatin-C, median value (2nd study, 10 mg/kg, serum): 696.00 ng/mL
Eotaxin, median value (2nd study, 10 mg/kg, serum): 1072.00 pg/mL
FGF-9 (Fibroblast Growth Factor-9), median value (2nd study, 10 mg/kg, serum): 1.70 ng/mL
Factor VII, median value (2nd study, 10 mg/kg, serum): 0.30 ng/mL
GCP-2 (Granulocyte Chemotactic Protein-2), median value (2nd study, 10 mg/kg, serum): 0.29 ng/mL
GST-Mu, median value (2nd study, 10 mg/kg, serum): 1190.00 ng/mL
Growth Hormone, median value (2nd study, 10 mg/kg, serum): 3.10 ng/mL
IL-1beta (Interleukin-1beta), median value (2nd study, 10 mg/kg, serum): 0.56 ng/mL
IL-2 (Interleukin-2), median value (2nd study, 10 mg/kg, serum): 22.00 pg/mL
IL-5 (Interleukin-5), median value (2nd study, 10 mg/kg, serum): 0.24 ng/mL
IL-7 (Interleukin-7), median value (2nd study, 10 mg/kg, serum): 0.06 ng/mL
IL-10 (Interleukin-10), median value (2nd study, 10 mg/kg, serum): 362.00 pg/mL
IL-18 (Interleukin-18), median value (2nd study, 10 mg/kg, serum): 0.43 ng/mL
IP-10 (Inducible Protein-10), median value (2nd study, 10 mg/kg, serum): 41.00 pg/mL
IgA (Immunoglobulin A), median value (2nd study, 10 mg/kg, serum): 4.30 µg/mL
Insulin, median value (2nd study, 10 mg/kg, serum): 14.50 uIU/mL
LIF (Leukemia Inhibitory Factor), median value (2nd study, 10 mg/kg, serum): 67.00 pg/mL
Leptin, median value (2nd study, 10 mg/kg, serum): 1.35 ng/mL
Lymphotactin, median value (2nd study, 10 mg/kg, serum): 63.00 pg/mL
M-CSF (Macrophage-Colony Stimulating Factor), median value (2nd study, 10 mg/kg, serum): 1400.00 ng/mL
MCP-1 (Monocyte Chemoattractant Protein-1), median value (2nd study, 10 mg/kg, serum): 1020.00 pg/mL
MCP-3 (Monocyte Chemoattractant Protein-3), median value (2nd study, 10 mg/kg, serum): 659.00 pg/mL
MCP-5 (Monocyte Chemoattractant Protein-5), median value (2nd study, 10 mg/kg, serum): 0.72 pg/mL
MDC (Macrophage-Derived Chemokine), median value (2nd study, 10 mg/kg, serum): 0.12 pg/mL
MIP-1alpha (Macrophage Inflammatory Protein-1alpha), median value (2nd study, 10 mg/kg, serum): 127.00 ng/mL
MIP-1beta (Macrophage Inflammatory Protein-1beta), median value (2nd study, 10 mg/kg, serum): 0.01 pg/mL
MIP-1gamma (Macrophage Inflammatory Protein-1gamma), median value (2nd study, 10 mg/kg, serum): 19.00 ng/mL
MIP-2 (Macrophage Inflammatory Protein-2), median value (2nd study, 10 mg/kg, serum): 0.22 pg/mL
MIP-3beta (Macrophage Inflammatory Protein-3beta), median value (2nd study, 10 mg/kg, serum): 29.70 ng/mL
MPO (Myeloperoxidase), median value (2nd study, 10 mg/kg, serum): 533.00 ng/mL
Myoglobin, median value (2nd study, 10 mg/kg, serum): 520.00 ng/mL
NGAL (Lipocalin-2), median value (2nd study, 10 mg/kg, serum): 0.15 ng/mL
OSM (Oncostatin M), median value (2nd study, 10 mg/kg, serum): 19.10 ng/mL
Osteopontin, median value (2nd study, 10 mg/kg, serum): 255.00 ng/mL
RANTES (Regulation Upon Activation, Normal T-Cell Expressed and Secreted), median value (2nd study, 10 mg/kg, serum): 10.60 pg/mL
SAP (Serum Amyloid P), median value (2nd study, 10 mg/kg, serum): 403.00 µg/mL
SCF (Stem Cell Factor), median value (2nd study, 10 mg/kg, serum): 11.30 pg/mL
SGOT (Serum Glutamic-Oxaloacetic Transaminase), median value (2nd study, 10 mg/kg, serum): 8.53 µg/mL
TIMP-1 (Tissue Inhibitor of Metalloproteinase Type-1), median value (2nd study, 10 mg/kg, serum): 0.24 ng/mL
TNF-alpha (Tumor Necrosis Factor-alpha), median value (2nd study, 10 mg/kg, serum): 4.45 ng/mL
TPO (Thrombopoietin), median value (2nd study, 10 mg/kg, serum): 119.00 ng/mL
Tissue Factor, median value (2nd study, 10 mg/kg, serum): 0.06 ng/mL
VCAM-1 (Vascular Cell Adhesion Molecule-1), median value (2nd study, 10 mg/kg, serum): 353.00 ng/mL
VEGF (Vascular Endothelial Cell Growth Factor), median value (2nd study, 10 mg/kg, serum): 78.00 pg/mL
Apo A1 (Apolipoprotein A1), median value (2nd study, 10 mg/kg): 6.20 µg/mL
reversal of chronic mild stress induced changes in serum inflammatory markers / cytokine levels (listed as gaboxadol): dose dependently was able to reverse most of the chronic mild stress induced changes in cytokine levels; also recorded: significantly reversed the stress-induced alterations in serum markers toward levels found in non-stressed controls; also recorded: dose dependently is able to reverse or partially reverse changes at most in inflammatory parameters induced by chronic mild stress
